According to patent US12685735B2 (Foghorn Therapeutics Inc., priority 2020, dated 2026):
Like-named read-outs stand apart in the source and are kept apart here.

Tests used:
[1] = target: BRM (Homo sapiens, UniProt P51531); experiment: ATPase catalytic activity assay of BRM (ADP-Glo); type: biochemical; conditions: for IC50: read-out: BRM IC50 (μM)*
Method in brief: (§1)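 Two room-temperature incubations follow the reaction: 40 min to eliminate unused ATP, then 60 min to turn ADP into ATP driving luciferase light output. Activity is read as luminescence proportional to ADP formed.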

[2] = target: BRG-1 (Homo sapiens, UniProt P51532); experiment: ATPase catalytic activity assay of BRG-1 (ADP-Glo); type: biochemical; conditions: ATPase catalytic activity, ADP-Glo; for IC50: read-out: BRG1 IC50 (μM)*; for Emax: read-out: BRG1 Max % Inhibition
Method in brief: as §1

BRG-1, sequence (P51532 whole entry): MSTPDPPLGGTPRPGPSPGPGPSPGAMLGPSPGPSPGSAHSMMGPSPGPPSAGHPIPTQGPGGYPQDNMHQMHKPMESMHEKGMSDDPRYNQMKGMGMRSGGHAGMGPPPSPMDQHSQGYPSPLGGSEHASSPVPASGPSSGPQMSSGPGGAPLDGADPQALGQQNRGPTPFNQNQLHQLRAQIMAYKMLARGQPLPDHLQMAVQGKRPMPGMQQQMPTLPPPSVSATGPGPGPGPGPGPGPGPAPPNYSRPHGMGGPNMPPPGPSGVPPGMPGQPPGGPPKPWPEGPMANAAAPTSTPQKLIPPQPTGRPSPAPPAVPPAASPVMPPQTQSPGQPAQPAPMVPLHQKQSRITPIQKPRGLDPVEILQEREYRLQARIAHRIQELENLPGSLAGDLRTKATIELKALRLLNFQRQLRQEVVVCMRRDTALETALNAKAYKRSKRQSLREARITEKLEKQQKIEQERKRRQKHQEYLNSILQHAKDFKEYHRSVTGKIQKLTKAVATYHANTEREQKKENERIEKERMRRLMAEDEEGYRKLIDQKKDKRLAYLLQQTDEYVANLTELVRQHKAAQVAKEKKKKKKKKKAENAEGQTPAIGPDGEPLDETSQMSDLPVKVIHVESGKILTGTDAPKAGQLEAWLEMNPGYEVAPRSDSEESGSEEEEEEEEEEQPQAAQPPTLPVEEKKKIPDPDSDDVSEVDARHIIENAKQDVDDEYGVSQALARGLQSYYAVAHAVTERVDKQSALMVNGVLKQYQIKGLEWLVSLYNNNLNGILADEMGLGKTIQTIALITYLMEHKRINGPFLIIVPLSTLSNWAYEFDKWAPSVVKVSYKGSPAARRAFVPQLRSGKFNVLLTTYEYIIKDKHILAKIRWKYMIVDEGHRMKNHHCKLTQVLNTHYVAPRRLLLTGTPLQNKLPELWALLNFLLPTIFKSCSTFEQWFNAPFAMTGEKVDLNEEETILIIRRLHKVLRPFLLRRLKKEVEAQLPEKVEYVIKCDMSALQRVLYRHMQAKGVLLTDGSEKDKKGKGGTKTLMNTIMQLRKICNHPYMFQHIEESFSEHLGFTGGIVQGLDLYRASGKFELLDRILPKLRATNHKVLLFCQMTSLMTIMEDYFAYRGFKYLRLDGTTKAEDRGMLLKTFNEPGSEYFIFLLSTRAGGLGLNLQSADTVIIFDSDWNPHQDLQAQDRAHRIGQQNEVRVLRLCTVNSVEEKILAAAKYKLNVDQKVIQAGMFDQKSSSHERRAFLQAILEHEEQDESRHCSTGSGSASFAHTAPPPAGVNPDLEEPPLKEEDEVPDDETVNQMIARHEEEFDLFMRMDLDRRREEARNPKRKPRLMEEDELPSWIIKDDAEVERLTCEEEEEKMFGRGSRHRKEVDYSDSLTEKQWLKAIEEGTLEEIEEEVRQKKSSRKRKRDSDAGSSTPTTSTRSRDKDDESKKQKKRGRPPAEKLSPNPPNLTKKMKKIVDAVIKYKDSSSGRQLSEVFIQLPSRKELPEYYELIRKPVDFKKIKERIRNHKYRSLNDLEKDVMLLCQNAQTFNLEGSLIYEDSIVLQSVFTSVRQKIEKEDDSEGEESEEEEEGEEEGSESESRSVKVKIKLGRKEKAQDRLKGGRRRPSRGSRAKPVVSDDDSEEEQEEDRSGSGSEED
BRM, sequence (P51531 whole entry): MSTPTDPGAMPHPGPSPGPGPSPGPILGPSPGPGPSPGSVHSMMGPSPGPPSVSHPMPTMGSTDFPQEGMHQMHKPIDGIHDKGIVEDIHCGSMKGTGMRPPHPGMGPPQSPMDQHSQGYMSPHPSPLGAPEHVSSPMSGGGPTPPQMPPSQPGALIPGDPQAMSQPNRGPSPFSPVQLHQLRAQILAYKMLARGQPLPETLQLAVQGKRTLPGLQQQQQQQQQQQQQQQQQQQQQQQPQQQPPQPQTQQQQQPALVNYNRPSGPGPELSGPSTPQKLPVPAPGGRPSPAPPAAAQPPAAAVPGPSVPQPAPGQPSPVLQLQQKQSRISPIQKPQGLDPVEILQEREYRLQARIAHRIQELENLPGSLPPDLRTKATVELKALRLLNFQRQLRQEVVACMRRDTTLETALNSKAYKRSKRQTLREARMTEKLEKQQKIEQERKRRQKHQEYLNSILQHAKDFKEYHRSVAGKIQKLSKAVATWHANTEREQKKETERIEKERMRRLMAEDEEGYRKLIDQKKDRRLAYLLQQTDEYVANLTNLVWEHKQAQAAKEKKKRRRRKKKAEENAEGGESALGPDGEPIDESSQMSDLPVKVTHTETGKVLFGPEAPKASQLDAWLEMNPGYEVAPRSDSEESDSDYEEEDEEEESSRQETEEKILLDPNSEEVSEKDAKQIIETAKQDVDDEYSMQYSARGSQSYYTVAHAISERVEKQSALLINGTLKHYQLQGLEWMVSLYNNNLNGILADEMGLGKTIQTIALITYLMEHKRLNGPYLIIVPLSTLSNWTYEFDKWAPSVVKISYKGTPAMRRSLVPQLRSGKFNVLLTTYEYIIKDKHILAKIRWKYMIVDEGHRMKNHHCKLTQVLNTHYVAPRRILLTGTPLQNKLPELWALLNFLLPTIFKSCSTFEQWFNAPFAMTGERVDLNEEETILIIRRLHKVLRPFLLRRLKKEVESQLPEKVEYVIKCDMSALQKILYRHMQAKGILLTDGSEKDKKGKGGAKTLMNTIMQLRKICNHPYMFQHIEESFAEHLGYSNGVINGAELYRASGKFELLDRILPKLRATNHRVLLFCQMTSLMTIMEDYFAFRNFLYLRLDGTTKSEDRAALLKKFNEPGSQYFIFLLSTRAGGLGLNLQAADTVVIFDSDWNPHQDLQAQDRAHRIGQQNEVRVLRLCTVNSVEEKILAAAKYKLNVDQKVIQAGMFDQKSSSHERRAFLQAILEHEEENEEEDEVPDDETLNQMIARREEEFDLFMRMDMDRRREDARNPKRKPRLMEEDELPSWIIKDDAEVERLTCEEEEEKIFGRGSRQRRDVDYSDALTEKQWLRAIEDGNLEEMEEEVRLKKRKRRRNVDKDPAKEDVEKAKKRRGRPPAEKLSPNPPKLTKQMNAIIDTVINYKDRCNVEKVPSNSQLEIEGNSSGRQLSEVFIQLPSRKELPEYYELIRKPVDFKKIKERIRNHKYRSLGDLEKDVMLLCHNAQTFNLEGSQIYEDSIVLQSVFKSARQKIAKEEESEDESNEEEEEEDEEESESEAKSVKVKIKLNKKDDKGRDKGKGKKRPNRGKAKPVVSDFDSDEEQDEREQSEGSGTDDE

Structure (SMILES) | BRM Max % Inhibition [1] [%] | IC50 [1] [µM] | IC50 [2] [µM] | Emax [2] [%] | BRM Max % Inhibition ([1]; 30 nM BRM, 400 μM ATP) [%] | IC50 ([1]; 30 nM BRM, 400 μM ATP) [µM] | IC50 ([2]; 30 nM BRG-1, 400 μM ATP) [µM] | Emax ([2]; 30 nM BRG-1, 400 μM ATP) [%]
CC1COCc2ccc(C(=O)NCC(=O)Nc3nc(-c4cccc(N5C[C@@H](C)O[C@@H](C)C5)n4)cs3)cc21 (stereo partly drawn) [Compound 346, N-(2-((4-(6-((cis)-2,6-dimethylmorpholino)pyridin-2-yl)thiazol-2-yl)amino)-2-oxoethyl)-4-methylisochromane-6-carboxamide] | >95 | < 0.1 | 0.1 to 1 | > 95 |  |  |  | 
C[C@@]1(C#N)COCc2ccc(C(=O)NCC(=O)Nc3nc(-c4cccc([C@H]5CC5(F)F)n4)cs3)cc21 [Compound 387, (R)-4-cyano-N-(2-((4-(6-((R)-2,2-difluorocyclopropyl)pyridin-2-yl)thiazol-2-yl)amino)-2-oxoethyl)-4-methylisochromane-6-carboxamide] | >95 | < 0.1 | 1 to 5 | > 95 |  |  |  | 
C[C@@H]1CN(c2cccc(-c3csc(NC(=O)CNC(=O)c4ccc5c(c4)CCOC5)n3)n2)C[C@H](C)O1 [Compound 366, N-(2-((4-(6-((cis)-2,6-dimethylmorpholino)pyridin-2-yl)thiazol-2-yl)amino)-2-oxoethyl)isochromane-6-carboxamide] | >85 | < 0.1 | 0.1 to 1 | > 85 |  |  |  | 
CC(C)S(=O)(=O)c1cccc(C(=O)NCC(=O)Nc2nc(-c3cccc(-c4ccnc(CN(C)C)c4)c3)cs2)c1 [Compound 45, N-(2-((4-(3-(2-((dimethylamino)methyl)pyridin-4-yl)phenyl)thiazol-2-yl)amino)-2-oxoethyl)-3-(isopropylsulfonyl)benzamide] | >95 | < 0.1 | 1 to 5 |  |  |  |  | 
Cc1ccc(C(=O)NCC(=O)Nc2nc(-c3cccc(N4C[C@@H](C)O[C@@H](C)C4)c3)cs2)cc1S(=O)(=O)C(C)C [Compound 125, N-(2-((4-(3-((cis)-2,6-dimethylmorpholino)phenyl)thiazol-2-yl)amino)-2-oxoethyl)-3-(isopropylsulfonyl)-4-methylbenzamide] | >95 | < 0.1 | 0.1 to 1 | > 80 |  |  |  | 
C[C@@H]1CN(c2cccc(-c3csc(NC(=O)CNC(=O)c4ccc5c(c4)CCCCO5)n3)n2)C[C@H](C)O1 [Compound 338, N-(2-((4-(6-((cis)-2,6-dimethylmorpholino)pyridin-2-yl)thiazol-2-yl)amino)-2-oxoethyl)-2,3,4,5-tetrahydrobenzo[b]oxepine-7-carboxamide] | >90 | 0.1 to 1 | 0.1 to 1 | > 90 |  |  |  | 
Cc1cc(-c2cccc(-c3csc(NC(=O)CNC(=O)c4ccc5c(c4)[C@@](C)(CO)CCC5)n3)n2)ncn1 [Compound 207, (S)-8-(hydroxymethyl)-8-methyl-N-(2-((4-(6-(6-methylpyrimidin-4-yl)pyridin-2-yl)thiazol-2-yl)amino)-2-oxoethyl)-5,6,7,8-tetrahydronaphthalene-2-carboxamide] | >90 | 0.1 to 1 | > 5 | > 50 |  |  |  | 
CC(C)S(=O)(=O)c1cccc(C(=O)NCC(=O)Nc2nc(-c3cccc(-c4cccnc4)c3)cs2)c1 [Compound 39, 3-isopropylsulfonyl-N-[2-oxo-2-[[4-[3-(3-pyridyl)phenyl]thiazol-2-yl]amino]ethyl]benzamide] | >95 | 0.1 to 1 | 1 to 5 | > 90 |  |  |  | 
COc1cccc(-c2csc(NC(=O)CNC(=O)c3ccc4c(c3)[C@](C)(C#N)COC4)n2)c1F [Compound 402, (R)-4-cyano-N-(2-((4-(2-fluoro-3-methoxyphenyl)thiazol-2-yl)amino)-2-oxoethyl)-4-methylisochromane-6-carboxamide] | >95 | < 0.1 | < 0.1 | > 95 |  |  |  | 
Cc1cc(-c2cccc(-c3csc(NC(=O)CNC(=O)c4cccc(C(C)(C)CO)c4)n3)n2)ncn1 [Compound 230, 3-(2-hydroxy-1,1-dimethyl-ethyl)-N-[2-[[4-[6-(6-methylpyrimidin-4-yl)-2-pyridyl]thiazol-2-yl]amino]-2-oxo-ethyl]benzamide] | >95 | < 0.1 | 0.1 to 1 | > 80 |  |  |  | 
C[C@@H]1CN(c2cccc(-c3csc(NC(=O)CNC(=O)c4ccc5c(c4)[C@@]4(CCO4)COC5)n3)n2)C[C@H](C)O1 [Compound 350, (S)-N-(2-((4-(6-((cis)-2,6-dimethylmorpholino)pyridin-2-yl)thiazol-2-yl)amino)-2-oxoethyl)spiro[isochromane-4,2′-oxetane]-6-carboxamide] | >95 | < 0.1 | 1 to 5 | > 95 |  |  |  | 
C[C@@H]1CN(c2cccc(-c3csc(NC(=O)CNC(=O)c4cccc([C@@]5(O)CCOC5)c4)n3)n2)C[C@H](C)O1 [Compound 134, N-[2-[[4-[6-[(cis)-2,6-dimethylmorpholin-4-yl]-2-pyridyl]thiazol-2-yl]amino]-2-oxo-ethyl]-3-[(3S)-3-hydroxytetrahydrofuran-3-yl]benzamide] | >80 | 0.1 to 1 | 1 to 5 | > 60 |  |  |  | 

Next, values leading:

BRM Max % Inhibition [1] [%] | IC50 [1] [µM] | IC50 [2] [µM] | Emax [2] [%] | BRM Max % Inhibition ([1]; 30 nM BRM, 400 μM ATP) [%] | IC50 ([1]; 30 nM BRM, 400 μM ATP) [µM] | IC50 ([2]; 30 nM BRG-1, 400 μM ATP) [µM] | Emax ([2]; 30 nM BRG-1, 400 μM ATP) [%] | Structure (SMILES)
>95 | < 0.1 | < 0.1 | > 95 |  |  |  |  | C[C@@]1(C#N)COCc2ccc(C(=O)NCC(=O)Nc3nc(-c4cc(F)c5c(c4)OCC5)cs3)cc21 [Compound 353, (R)-4-cyano-N-(2-((4-(4-fluoro-2,3-dihydrobenzofuran-6-yl)thiazol-2-yl)amino)-2-oxoethyl)-4-methylisochromane-6-carboxamide]
 |  |  |  | >95 | < 0.1 | < 0.1 | > 95 | CC1(C#N)CCOc2ccc(C(=O)NCC(=O)Nc3nc(-c4cccc(-c5ccncc5)c4)cs3)cc21 (stereo in doubt) [Compound 440, (S)-4-cyano-4-methyl-N-(2-oxo-2-((4-(3-(pyridin-4-yl)phenyl)thiazol-2-yl)amino)ethyl)chromane-6-carboxamide]
>90 | 0.1 to 1 | 1 to 5 | > 90 |  |  |  |  | C[C@@H]1CN(c2cccc(-c3csc(NC(=O)CNC(=O)c4ccc5c(c4)C(C)(C#N)OCC5)n3)n2)C[C@H](C)O1 (stereo partly drawn) [Compound 384, 1-cyano-N-(2-((4-(6-((cis)-2,6-dimethylmorpholino)pyridin-2-yl)thiazol-2-yl)amino)-2-oxoethyl)-1-methylisochromane-7-carboxamide]
 |  |  |  | >90 | 0.1 to 1 | 1 to 5 | > 90 | C[C@@H]1CN(c2cccc(-c3csc(NC(=O)[C@H](CO)NC(=O)c4ccnc(C(C)(C)C)c4)n3)c2)C[C@H](C)O1 [Compound 434, 2-(tert-butyl)-N-((S)-1-((4-(3-((cis)-2,6-dimethylmorpholino)phenyl)thiazol-2-yl)amino)-3-hydroxy-1-oxopropan-2-yl)isonicotinamide]
>80 | 1 to 5 | 1 to 5 | > 50 |  |  |  |  | CC(C)(CN)c1cccc(C(=O)NCC(=O)Nc2nc(-c3cccc(-c4cccc(Cl)c4)c3)cs2)c1 [Compound 54, 3-(1-amino-2-methylpropan-2-yl)-N-(2-((4-(3′-chloro-[1,1′-biphenyl]-3-yl)thiazol-2-yl)amino)-2-oxoethyl)benzamide]
>70 | 1 to 5 | > 5 | > 30 |  |  |  |  | Cn1ccc(-c2cccc(-c3csc(NC(=O)CNC(=O)c4ccc5c(c4)[C@](C)(CO)CC5)n3)n2)n1 [Compound 265, (3R)-3-(hydroxymethyl)-3-methyl-N-[2-[[4-[6-(1-methylpyrazol-3-yl)-2-pyridyl]thiazol-2-yl]amino]-2-oxo-ethyl]indane-5-carboxamide]
>90 | 0.1 to 1 | 1 to 5 | > 70 |  |  |  |  | CC(C)S(=O)(=O)c1cccc(C(=O)NCC(=O)Nc2nc(-c3cccc(-c4cccc(CN)c4)c3)cs2)c1 [Compound 31, N-(2-((4-(3′-(aminomethyl)-[1,1′-biphenyl]-3-yl)thiazol-2-yl)amino)-2-oxoethyl)-3-(isopropylsulfonyl)benzamide]
>80 | 0.1 to 1 | 1 to 5 | > 50 |  |  |  |  | CN1CCOc2ccc(-c3csc(NC(=O)CNC(=O)c4ccc5c(c4)[C@@](C)(CO)CC5)n3)cc21 [Compound 174, (S)-3-(hydroxymethyl)-3-methyl-N-(2-((4-(4-methyl-3,4-dihydro-2H-benzo[b][1,4]oxazin-6-yl)thiazol-2-yl)amino)-2-oxoethyl)-2,3-dihydro-1H-indene-5-carboxamide]
>85 | 0.1 to 1 | 1 to 5 | > 85 |  |  |  |  | C[C@@H]1CN(c2cccc(-c3csc(NC(=O)CNC(=O)c4ccc5c(c4)[C@@](C)(C#N)CN5C)n3)c2)C[C@H](C)O1 [Compound 368, (R)-3-cyano-N-(2-((4-(3-((cis)-2,6-dimethylmorpholino)phenyl)thiazol-2-yl)amino)-2-oxoethyl)-1,3-dimethylindoline-5-carboxamide]
>95 | < 0.1 | < 0.1 | > 95 |  |  |  |  | C[C@@H]1CN(c2cccc(-c3csc(NC(=O)CNC(=O)c4ccc5c(c4)CCCOC5)n3)n2)C[C@H](C)O1 [Compound 296, N-(2-((4-(6-((cis)-2,6-dimethylmorpholino)pyridin-2-yl)thiazol-2-yl)amino)-2-oxoethyl)-1,3,4,5-tetrahydrobenzo[c]oxepine-7-carboxamide]
